# From patent publication US20060265780A1, “Interaction of glyphosate with photosystem II inhibitor herbicides as a selection tool for roundup ready events” (Monsanto Technology LLC, priority 2005, published 2006)
# Read-outs that look alike come from different tables or passages of the source.
# Tests used:
# Assay type in all cases: in vivo
# [1] = test system: DKC 53-33 corn hybrid (NK 603 event); test: Greenhouse glyphosate/PSII inhibitor injury assay, Example 2; settings: single application, treated at 2 leaves unfolded (GS 12)
# Experimental: (§1) Two corn seeds were planted one inch deep per 3.5×3.5 inch plastic pot filled with commercial potting mix (Redi-earth). The potting mix was supplemented with Osmacote™ 14-14-14 slow release fertilizer at 100 gm/ft3 to optimize growth. Pots were then placed in a greenhouse (25 C day/19 C night, 14 hour day) and water was supplied through subirrigation. Plants were allowed to grow to the stage where 3 leaves were unfolded (6-9 days after planting, approximate growth stage of GS 13) prior to the application of glyphosate and photosystem II inhibitor.
# (§2) Herbicide treatments consisted of application of glyphosate and PSII inhibitor. Application rates for glyphosate (Roundup UltraMAX, Monsanto, St. Louis) included: 840 gm/ha; 1680 gm/ha; and 3360 gm/ha (i.e., 0.75 lbs/A; 1.5 lbs/A; and 3.0 lbs/A). Application rates for linuron (Lorox, DuPont) included 56 gm/ha; 112 gm/ha; and 224 gm/ha. Application rates for metribuzin (Sencor, Bayer) included 56 gm/ha; 112 gm/ha; and 224 gm/ha. Treatments were broadcast applied in a research track sprayer utilizing an even flat fan spray tip. Plants were returned to the greenhouse following applications. Growth inhibition was measured 10 days after treatment (DAT). […] Growth reduction can be measured about 7-10 DAT by direct or visual estimation (0=no growth reduction, 100=complete growth reduction).
# (§3) Roundup Ready corn hybrids tested were RX 686Roundup Ready (GA 21 event) and DKC 53-33(NK 603 event). Growth of plant material and treatment regime was as described in Example 1, except plants were allowed to grow to the stage where 2 leaves were unfolded (approximately GS 12) prior to the application of glyphosate and photosystem II inhibitor. Growth inhibition was measured 10 days after treatment (DAT).
# [2] = test system: RX 686 Roundup Ready corn hybrid (GA 21 event); test: as above; settings: single application, treated at 2 leaves unfolded (GS 12)
# Experimental: as §1, §2, §3
# [3] = test system: GA 21 corn event
# Experimental: (§4) The glyphosate tolerance of RoundUp Ready corn events NK 603 and GA 21 were characterized in field trials. Corn was planted in 36 inch rows in plots of 4 rows by 30 ft with the two center rows being harvested. The study comprised 22 locations with 4 replicates of each treatment per location and the data were pooled across locations. Corn plants were treated with glyphosate at two consecutive developmental ages of V4 and V8. Glyphosate application rates were 0.75, 1.5, and 2.23 pounds per acre (lbs/A). Application volume was 10 gallons/acre. […] Data for chlorosis, malformed leaves, and growth reduction was collected at 22 locations. Also, at harvest of mature corn plants, the yield percentage and grain moisture percentage were assessed. Data for yield and grain moisture was collected at harvest at 19 locations and expressed as the mean percentage yield or moisture with respect to controls.
# [4] = test system: NK 603 corn event
# Experimental: as §4
# [5] = test system: GA 21 corn event; settings: for % Yield / % Grain Moisture: harvest, 19 locations
# [6] = test system: NK 603 corn event; remark: listed apart in the source
# [7] = glyphosate rate 0.75/0.75 (lbs/A) at V4/V8, 22 locations
# [8] = glyphosate rate 0.75/0.75 at V4/V8, mean with respect to controls, harvest, 19 locations
# [9] = glyphosate rate 1.5/1.5 (lbs/A) at V4/V8, 22 locations
# [10] = glyphosate rate 1.5/1.5 at V4/V8, locations with injury greater than 9%
# [11] = glyphosate rate 2.25/2.25 at V4/V8, locations with injury greater than 9%
# [12] = NK 603, glyphosate rate 0.75/0.75 (lbs/A) at V4/V8, 22 locations
# [13] = NK 603, glyphosate rate 1.5/1.5 (lbs/A) at V4/V8, 22 locations
# [14] = NK 603, glyphosate rate 1.5/1.5 at V4/V8, mean with respect to controls, harvest, 19 locations
# [15] = glyphosate rate 2.25/2.25 (lbs/A) at V4/V8, 22 locations
# [16] = glyphosate rate 2.25/2.25 at V4/V8, mean with respect to controls
# [17] = glyphosate rate 2.25/2.25 at V4/V8, mean with respect to controls, harvest, 19 locations
compound,measurement,setting,value
CON(C)C(=O)Nc1ccc(Cl)c(Cl)c1 [linuron],crop injury,[1],did not produce any discernable crop injury
same,crop injury,[2],did not produce any discernable crop injury
CSc1nnc(C(C)(C)C)c(=O)n1N [metribuzin],crop injury,[1],did not produce any discernable crop injury
same,crop injury,[2],did not produce any discernable crop injury
"O=C(O)CNCP(=O)(O)O [glyphosate, N-phosphonomethylglycine]",crop injury,[1],did not produce any discernable crop injury
same,crop injury,[2],did not produce any discernable crop injury
same,% Chlorosis 10 DAT: number of locations exhibiting injury greater than 9%,[3]; [7],None
same,% Malform 10 DAT: number of locations exhibiting injury greater than 9%,[3]; [7],None
same,% Grain Moisture,[3]; [8],100.7%
same,% Growth Reduction 30 DAT: number of locations exhibiting injury greater than 9%,[3]; [9],1
same,% Growth Reduction 10 DAT: percentage range of observed injury,[3]; [10],10-14%
same,% Growth Reduction 30 DAT: percentage range of observed injury,[3]; [10],11%
same,% Yield,"[3]; glyphosate rate 1.5/1.5 at V4/V8, mean with respect to controls, harvest, 19 locations",97.8%
same,% Chlorosis 10 DAT: percentage range of observed injury,[3]; [11],11-21%
same,% Growth Reduction 30 DAT: percentage range of observed injury,[3]; [11],10-13%
same,% Chlorosis 10 DAT: number of locations exhibiting injury greater than 9%,[4]; [12],None
same,% Malform 10 DAT: number of locations exhibiting injury greater than 9%,[4]; [12],None
same,% Yield,"[4]; NK 603, glyphosate rate 0.75/0.75 at V4/V8, mean with respect to controls, harvest, 19 locations",103.3%
same,% Chlorosis 10 DAT: number of locations exhibiting injury greater than 9%,[4]; [13],None
same,% Growth Reduction 30 DAT: number of locations exhibiting injury greater than 9%,[4]; [13],None
same,% Malform 10 DAT: percentage range of observed injury,"[4]; NK 603, glyphosate rate 1.5/1.5 at V4/V8, locations with injury greater than 9%",10-11%
same,% Grain Moisture,[4]; [14],101.7%
same,% Yield,[4]; [14],99.4%
same,injury,"[4]; glyphosate applications up to 3360 gm/ha, even applied sequentially, NK 603 event (e.g. DKC 53-33 hybrid)",no injury
same,% Growth Reduction 10 DAT: number of locations exhibiting injury greater than 9%,[5]; [7],None
same,% Growth Reduction 30 DAT: number of locations exhibiting injury greater than 9%,[5]; [7],None
same,% Yield,"[5]; glyphosate rate 0.75/0.75 at V4/V8, mean with respect to controls",101.8%
same,% Chlorosis 10 DAT: number of locations exhibiting injury greater than 9%,[5]; [9],3
same,% Growth Reduction 10 DAT: number of locations exhibiting injury greater than 9%,[5]; [9],5
same,% Malform 10 DAT: number of locations exhibiting injury greater than 9%,[5]; [9],5
same,% Chlorosis 10 DAT: percentage range of observed injury,[5]; [10],10-14%
same,% Malform 10 DAT: percentage range of observed injury,[5]; [10],11-16%
same,% Grain Moisture,"[5]; glyphosate rate 1.5/1.5 at V4/V8, mean with respect to controls",101.0%
same,% Chlorosis 10 DAT: number of locations exhibiting injury greater than 9%,[5]; [15],3
same,% Growth Reduction 10 DAT: number of locations exhibiting injury greater than 9%,[5]; [15],7
same,% Growth Reduction 30 DAT: number of locations exhibiting injury greater than 9%,[5]; [15],4
same,% Malform 10 DAT: number of locations exhibiting injury greater than 9%,[5]; [15],6
same,% Growth Reduction 10 DAT: percentage range of observed injury,[5]; [11],11-30%
same,% Malform 10 DAT: percentage range of observed injury,[5]; [11],10-33%
same,% Grain Moisture,[5]; [16],101.6%
same,% Yield,[5]; [16],90.8%
same,% Growth Reduction 10 DAT: number of locations exhibiting injury greater than 9%,[6]; [7],None
same,% Growth Reduction 30 DAT: number of locations exhibiting injury greater than 9%,[6]; [7],None
same,% Grain Moisture,[6]; [8],100.2%
same,% Growth Reduction 10 DAT: number of locations exhibiting injury greater than 9%,[6]; [9],None
same,% Malform 10 DAT: number of locations exhibiting injury greater than 9%,[6]; [9],3
same,% Chlorosis 10 DAT: number of locations exhibiting injury greater than 9%,[6]; [15],3
same,% Growth Reduction 10 DAT: number of locations exhibiting injury greater than 9%,[6]; [15],3
same,% Growth Reduction 30 DAT: number of locations exhibiting injury greater than 9%,[6]; [15],2
same,% Malform 10 DAT: number of locations exhibiting injury greater than 9%,[6]; [15],6
same,% Chlorosis 10 DAT: percentage range of observed injury,[6]; [11],11-19%
same,% Growth Reduction 10 DAT: percentage range of observed injury,[6]; [11],10-19%
same,% Growth Reduction 30 DAT: percentage range of observed injury,[6]; [11],11-15%
same,% Malform 10 DAT: percentage range of observed injury,[6]; [11],11-19%
same,% Grain Moisture,[6]; [17],103.1%
same,% Yield,[6]; [17],96.6%
